Laboratory results published in patent publication US6514918B1, “Viscous, mild, and effective cleansing compositions” (Johnson & Johnson Consumer Companies, Inc., priority 2000, dated 2003).

What was measured:
[1] = Foam Generation (Foam Tray Test); type: physicochemical; settings: 1.0% in cleansing composition; acceptable if at least twice the foam of Example 1
Method: 1. Foam Generation: 1 g of a cleansing composition sample was added to a tray containing 5 liters of tap water, then gently mixed until homogenous without generating any foam. A Model AJMP14 Jiffy Mixer mechanical mixer available from U.S. Best, Inc. with an attached propeller blade was then set at a level in the tray such that the propeller blade was halfway immersed in the mixture. The mixer was then activated at a speed of 2000 RPM for 30 seconds to generate foam. Foam data was collected via photography using a Polaroid MP4+ camera at 30 seconds after the mixing was ceased. The area of foam in the tray was calculated and reported as % area of foam in tray.
Foam performance evaluation was then accomplished for each of the cleansing compositions of Examples 1-8.
Foaming of the Examples was considered acceptable if it was at least twice the amount of foam of Example 1.

[2] = Final batch viscosity, Brookfield DV-I+ Viscometer; type: physicochemical; settings: 1.0% in cleansing composition; acceptable if at least twice the viscosity of Example 1
Method: After this mixture had cooled to a temperature not greater than 40° C., the following components were added sequentially thereto: 0.10 parts Tetrasodium EDTA, 0.05 parts Quaternium-15, and 1.9 parts Glycerin. After this solution mixture had cooled to room temperature (approximately 25° C.), the pH of the resulting solution was then adjusted with a 20% citric acid solution until a final pH of 6.0 to 6.6 was obtained. The batch weight of the solution was then adjusted with water in order to achieve a total formulation of 100 parts. Table 2 lists the final batch viscosity of each Example as measured by a Brookfield DV-I+Viscometer using the indicated spindle and speed.
The viscosity of the examples was considered acceptable if it was at least twice the viscosity of Example 1.

subject's eye = assay: Ocular Irritancy Test (human ocular sting); type: in vivo; settings: 1.0% in mild cleansing composition
Method: 2. Ocular Irritancy Test: Using a double-blinded, randomized, two (2) cell study test design, one (1) drop of a sample (e.g. a 10% dilution of a cleansing composition in water) at a temperature of about 38° C. was instilled into a subject's eye. A new sterile disposable eyedropper was used for each sample and disposed of after being used on only one individual's eye. All instillations were performed either by an investigator or by a trained technician.
Within 30 seconds, or as closely as possible following instillation, the subject was asked to grade the perceived stinging sensation to the eye utilizing the following criteria:
After 15 minutes and 60 minutes post-instillation, the subject was again asked to grade the perceived stinging sensation to the eye. The data was collected from a balanced, complete block experiment then statistically analyzed.
The samples of Examples 1-8 were tested for ocular irritancy. The results are reported in Table 4 in terms of the percentage of subjects who found the respective sample to be stinging to their eyes.
A sample was considered to have low ocular irritancy if less than 20% of the people tested found the sample to sting their eyes.

Effect on foam generation in mild cleansing compositions [1]	Effect on viscosity of a mild cleansing composition [2]	Substance	Mildness to the eye relative to Cocamide MIPA and Cocamide MEA (subject's eye)
effective at increasing foam generation	effective at increasing the viscosity	Cocamide MEA [reference compound]	
effective at increasing foam generation	effective at increasing the viscosity	Cocamide MIPA [reference compound]	
effective at increasing foam generation	effective at increasing the viscosity	PEG-6 Lauramide	significantly more mild to the eye
effective at increasing foam generation	effective at increasing the viscosity	polypropylene glycol (“PPG”)-2 Hydroxyethyl Cocamide [PPG-2 Hydroxyethyl Cocamide]	significantly more mild to the eye
effective at increasing foam generation	effective at increasing the viscosity	polyethylene glycol (“PEG”)-6 Cocamide [PEG-6 Cocamide]	significantly more mild to the eye
effective at increasing foam generation	effective at increasing the viscosity	PEG-3 Cocamide	significantly more mild to the eye
effective at increasing foam generation	effective at increasing the viscosity	Cocamide DEA [reference compound]	significantly more mild to the eye
